{"source": "PubChem BioAssay AID328", "about": "(DTP/NCI, 2004)", "system": "BDF1 mice, P388 leukemia ip, median survival T/C", "experiment": "NCI In Vivo Anticancer Drug Screen. Data for tumor model P388 Leukemia (intraperitoneal) in B6D2F1 (BDF1) mice", "conditions": "endpoint: median survival time, higher = longer survival", "how_it_was_run": "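Steps: implant the tumour, treat one group with compound and another with vehicle, record survival, then divide treated by control.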", "key": {"[1]": {"conditions": "dose: 100.0 mg/kg/injection, schedule: Q01DX009 (ip), vehicle: Klucel (hydroxypropylcellulose) (HPC)"}, "[2]": {"conditions": "dose: 200.0 mg/kg/injection, schedule: Q01DX009 (ip), vehicle: Klucel (hydroxypropylcellulose) (HPC)"}}, "note": "“And” between values parts separate entries of the source, which are not always exact repeats. Equal entries are not always repeated. Toxic doses and inconclusive results are not listed."}
{"molecule": "CC1(C2CC2)NC(=O)NC1=O", "note": "(configuration not stated)", "values": [{"measurement": "T/C", "setting": "dose: 75.0 mg/kg/injection, schedule: Q01DX009 (ip), vehicle: saline", "value": "113 % of control"}, {"measurement": "T/C", "setting": "dose: 100.0 mg/kg/injection, schedule: Q01DX001 (ip), vehicle: saline", "value": "113 % of control"}, {"measurement": "T/C", "setting": "dose: 150.0 mg/kg/injection, schedule: Q01DX009 (ip), vehicle: saline", "value": "104 % of control"}, {"measurement": "T/C", "setting": "dose: 200.0 mg/kg/injection, schedule: Q01DX001 (ip), vehicle: saline", "value": "104 % of control"}, {"measurement": "T/C", "setting": "dose: 300.0 mg/kg/injection, schedule: Q01DX009 (ip), vehicle: saline", "value": "100 % of control"}, {"measurement": "T/C", "setting": "dose: 400.0 mg/kg/injection, schedule: Q01DX001 (ip), vehicle: saline", "value": "104 % of control"}]}
{"molecule": "OCc1cc(Cl)ccc1O", "values": [{"measurement": "T/C", "setting": "dose: 50.0 mg/kg/injection, schedule: Q01DX009 (ip), vehicle: Klucel (hydroxypropylcellulose) (HPC)", "value": "101 % of control"}, {"measurement": "T/C", "setting": "[1]", "value": "103 % of control"}, {"measurement": "T/C", "setting": "dose: 100.0 mg/kg/injection, schedule: Q04DX003 (ip), vehicle: other", "value": "100 % of control"}, {"measurement": "T/C", "setting": "dose: 132.0 mg/kg/injection, schedule: Q04DX003 (ip), vehicle: other", "value": "95 % of control"}, {"measurement": "T/C", "setting": "[2]", "value": "110 % of control"}, {"measurement": "T/C", "setting": "dose: 300.0 mg/kg/injection, schedule: Q04DX003 (ip), vehicle: other", "value": "108 % of control"}, {"measurement": "T/C", "setting": "dose: 400.0 mg/kg/injection, schedule: Q04DX003 (ip), vehicle: other", "value": "109 % of control"}]}
{"molecule": "Cc1ccc(C(CCC#N)OC(C)C)cc1", "note": "(configuration not stated)", "values": [{"measurement": "T/C", "setting": "[1]", "value": "86 % of control"}, {"measurement": "T/C", "setting": "dose: 100.0 mg/kg/injection, schedule: Q04DX003 (ip), vehicle: Klucel (hydroxypropylcellulose) (HPC)", "value": "100 % of control"}, {"measurement": "T/C", "setting": "[2]", "value": "109 % of control"}, {"measurement": "T/C", "setting": "dose: 200.0 mg/kg/injection, schedule: Q04DX003 (ip), vehicle: Klucel (hydroxypropylcellulose) (HPC)", "value": "109 % of control"}, {"measurement": "T/C", "setting": "dose: 400.0 mg/kg/injection, schedule: Q01DX009 (ip), vehicle: Klucel (hydroxypropylcellulose) (HPC)", "value": "113 % of control"}, {"measurement": "T/C", "setting": "dose: 400.0 mg/kg/injection, schedule: Q04DX003 (ip), vehicle: Klucel (hydroxypropylcellulose) (HPC)", "value": "109 % of control"}]}
{"molecule": "CC(=O)OC1CCC2(C)C3=C(CCC2C1(C)C)C1(C)CCC(c2ccc(C(C)C)oc2=O)C1(C)CC3", "note": "(configuration not stated)", "values": [{"measurement": "T/C", "setting": "dose: 70.0 mg/kg/injection, schedule: Q01DX010 (ip), vehicle: carboxymethylcellulose (CMC)", "value": "90 % of control"}, {"measurement": "T/C", "setting": "dose: 140.0 mg/kg/injection, schedule: Q01DX010 (ip), vehicle: carboxymethylcellulose (CMC)", "value": "90 % of control"}, {"measurement": "T/C", "setting": "dose: 280.0 mg/kg/injection, schedule: Q01DX010 (ip), vehicle: carboxymethylcellulose (CMC)", "value": "90 % of control"}]}
{"molecule": "CSc1nc(Cl)c(Cl)c(C(F)(F)F)n1", "values": [{"measurement": "T/C", "setting": "dose: 6.25 mg/kg/injection, schedule: Q01DX005 (ip), vehicle: saline", "value": "110 % of control"}, {"measurement": "T/C", "setting": "dose: 12.5 mg/kg/injection, schedule: Q01DX005 (ip), vehicle: saline", "value": "109 % of control"}, {"measurement": "T/C", "setting": "dose: 25.0 mg/kg/injection, schedule: Q01DX005 (ip), vehicle: saline", "value": "115 % of control"}]}
{"molecule": "Clc1ccc2c(c1)nnn2OC1CCCCC1", "values": [{"measurement": "T/C", "setting": "dose: 50.0 mg/kg/injection, schedule: Q01DX009 (ip), vehicle: saline with Tween-80", "value": "88 % of control"}, {"measurement": "T/C", "setting": "dose: 100.0 mg/kg/injection, schedule: Q01DX009 (ip), vehicle: saline with Tween-80", "value": "92 % of control"}, {"measurement": "T/C", "setting": "dose: 200.0 mg/kg/injection, schedule: Q01DX009 (ip), vehicle: saline with Tween-80", "value": "90 % of control"}]}
{"molecule": "COc1ccc(CC2C(=O)NC(C)C(=O)N(C)C3Cc4ccc(cc4)Oc4cc(ccc4O)CC(C(=O)NC(C)C(=O)NC(C)C(=O)N2C)N(C)C3=O)cc1", "note": "(configuration not stated)", "values": [{"measurement": "T/C", "setting": "dose: 0.04 mg/kg/injection, schedule: Q01DX009 (ip), vehicle: saline", "value": "163 % of control"}, {"measurement": "T/C", "setting": "dose: 0.07 mg/kg/injection, schedule: Q01DX009 (ip), vehicle: saline", "value": "181 % of control"}, {"measurement": "T/C", "setting": "dose: 0.11 mg/kg/injection, schedule: Q01DX009 (ip), vehicle: saline with Tween-80", "value": "196 % of control"}, {"measurement": "T/C", "setting": "dose: 0.11 mg/kg/injection, schedule: Q01DX009 (ip), vehicle: saline", "value": "163 % of control"}, {"measurement": "T/C", "setting": "dose: 0.16 mg/kg/injection, schedule: Q01DX009 (ip), vehicle: saline with Tween-80", "value": "216 % of control"}, {"measurement": "T/C", "setting": "dose: 0.25 mg/kg/injection, schedule: Q01DX009 (ip), vehicle: saline with Tween-80", "value": "160 % of control and 186 % of control"}, {"measurement": "T/C", "setting": "dose: 0.5 mg/kg/injection, schedule: Q01DX009 (ip), vehicle: saline with Tween-80", "value": "186 % of control"}, {"measurement": "T/C", "setting": "dose: 1.0 mg/kg/injection, schedule: Q01DX009 (ip), vehicle: saline with Tween-80", "value": "189 % of control"}, {"measurement": "T/C", "setting": "dose: 2.0 mg/kg/injection, schedule: Q01DX009 (ip), vehicle: saline with Tween-80", "value": "208 % of control"}, {"measurement": "T/C", "setting": "dose: 4.32 mg/kg/injection, schedule: Q04DX003 (ip), vehicle: other", "value": "161 % of control and 212 % of control"}, {"measurement": "T/C", "setting": "dose: 7.2 mg/kg/injection, schedule: Q04DX003 (ip), vehicle: other", "value": "163 % of control and 208 % of control"}, {"measurement": "T/C", "setting": "dose: 10.0 micrograms/kg/injection, schedule: Q01DX009 (ip), vehicle: saline with Tween-80", "value": "108 % of control"}, {"measurement": "T/C", "setting": "dose: 20.0 micrograms/kg/injection, schedule: Q01DX009 (ip), vehicle: saline with Tween-80", "value": "108 % of control"}, {"measurement": "T/C", "setting": "dose: 40.0 micrograms/kg/injection, schedule: Q01DX009 (ip), vehicle: saline with Tween-80", "value": "119 % of control"}]}
